Reference: US20250049036A1 (priority 2021, published 2025)

Assays:
Parastagonospora nodorum = Parastagonospora nodorum (PARANO) spore growth inhibition in liquid medium, 96-well microtiter plate, OD 600; assay type: cell-based; conditions: spore suspension in PDB liquid medium, 18° C., 5-6 days, OD at 600, read-out: control compared to the untreated check
Procedure: Potato dextrose (PDB) liquid medium (Difco) containing a PARANO (10^5 spores/ml) spore suspension was prepared. For the inhibition assay, each test compound was solved in dimethyl sulfoxide. 100 μl of the test compound in media-solution was added to a 96-well microtiter plate, consequently, the same volume (100 μl) of spore suspension was added to the well making the final test concentrations and the plate was incubated at 18° C. for 5-6 days. The growth inhibition was evaluated by measuring the OD at 600. Percent inhibition was calculated with the below formula: […]

Phakopsora pachyrhizi = Phakopsora pachyrhizi test on soybean, preventive, greenhouse; assay type: in vivo; conditions: preventive spray on soybean, inoculated one day after treatment, read-out: control (efficacy, disease severity) compared to the untreated check
Procedure: The respective compound was dissolved in 2% dimethyl sulfoxide/acetone and then mixed with water containing emulsifier to the calibrated spray volume of 30 mL. Each spray solution was poured into a spray bottle for further application.
To test the preventive activity of a compound, healthy young soybean plants, raised in the greenhouse, were sprayed with the active compound preparation at the stated application rate inside the spray cabinets using hollow cone nozzles. One day after treatment, the plants were inoculated with a conidial suspension containing 2×10^5 Phakopsora pachyrhizi inoculum. The inoculated plants were then kept in a greenhouse chamber at 22-24° C. temperature and 80-90% relative humidity for disease expression.

Pyricularia oryzae = assay: microbe, parasite or virus in culture; assay type: cell-based; conditions: 168 h, read-out: control compared to the untreated check

Row | Compound | inhibition of growth at 300 ppm (Parastagonospora nodorum) [%] | pest or weed control at 500 ppm (Phakopsora pachyrhizi) [%] | further results
1 | Cc1ccc(F)cc1C(O)C(C)(C)NC(=O)c1cnc2c(c1)c(Br)cn2C (stereo not shown) [Compound 135, 3-bromo-N-(1-(5-fluoro-2-methylphenyl)-1-hydroxy-2-methylpropan-2-yl)-1-methyl-1H-pyrrolo[2,3-b]pyridine-5-carboxamide] | ≥ 70 | – | –
2 | Cc1cccc(CC(NC(=O)c2cnc3[nH]ccc3c2)C(C)(C)O)c1 (stereo not shown) [Compound 104, N-(3-hydroxy-3-methyl-1-(m-tolyl)butan-2-yl)-1H-pyrrolo[2,3-b]pyridine-5-carboxamide] | – | ≥ 70 | –
3 | Cc1ccc(C)c(COCC(C)(C)NC(=O)c2cnc3c(ccn3C)c2)c1 [Compound 227, N-(1-((2,5-dimethylbenzyl)oxy)-2-methylpropan-2-yl)-1-methyl-1H-pyrrolo[2,3-b]pyridine-5-carboxamide] | ≥ 70 | – | –
4 | CC(C)(Cc1ccccc1)NC(=O)c1cc2c(nc1Cl)CCC2 [Compound 210, 2-chloro-N-(2-methyl-1-phenylpropan-2-yl)-6,7-dihydro-5H-cyclopenta[b]pyridine-3-carboxamide] | ≥ 70 | – | –
5 | Cc1ccc(COCC(C)(C)NC(=O)c2cnc3ccsc3c2)c(C)c1 [Compound 200, N-(1-((2,4-dimethylbenzyl)oxy)-2-methylpropan-2-yl)thieno[3,2-b] pyridine-6-carboxamide] | ≥ 70 | – | –
6 | COc1nc2c(cc1C(=O)NC1(Cc3ccccc3)CC1)CCC2 [Compound 245, N-(1-benzylcyclopropyl)-2-methoxy-6,7-dihydro-5H-cyclopenta[b]pyridine-3-carboxamide] | ≥ 70 | – | –
7 | Cc1ccccc1C(=O)OCC(C)(C)NC(=O)c1cnc2c(c1)c(Br)cn2C [Compound 185, 2-(3-bromo-1-methyl-1H-pyrrolo[2,3-b]pyridine-5-carboxamido)-2-methylpropyl 2-methylbenzoate] | – | – | inhibition of growth at 300 ppm (Pyricularia oryzae): ≥ 70%
8 | Cn1ccc2cc(C(=O)NC(C)(C)Cc3ccc(C(C)(C)C)cc3)cnc21 [Compound 16, N-(1-(4-(tert-butyl)phenyl)-2-methylpropan-2-yl)-1-methyl-1H-pyrrolo[2,3-b]pyridine-5-carboxamide] | ≥ 70 | – | –
9 | CC(C)c1ccc(CC(C)(C)NC(=O)c2cnc3c(ccn3C)c2)cc1 [Compound 18, N-(1-(4-isopropylphenyl)-2-methylpropan-2-yl)-1-methyl-1H-pyrrolo[2,3-b]pyridine-5-carboxamide] | ≥ 70 | – | –
10 | COc1nc2c(cc1C(=O)NC(C)(C)Cc1ccccc1)CCC2 [Compound 217, 2-methoxy-N-(2-methyl-1-phenylpropan-2-yl)-6,7-dihydro-5H-cyclopenta[b]pyridine-3-carboxamide] | ≥ 70 | – | –
11 | CC(C)(COc1ccnc(Cl)c1)NC(=O)c1cnc2ccsc2c1 [Compound 205, N-(1-((2-chloropyridin-4-yl)oxy)-2-methylpropan-2-yl)thieno[3,2-b] pyridine-6-carboxamide] | ≥ 70 | – | –
12 | Cc1nc2[nH]ccc2cc1C(=O)NC(C)(C)Cc1ccccc1 [Compound 93, 6-methyl-N-(2-methyl-1-phenylpropan-2-yl)-1H-pyrrolo[2,3-b] pyridine-5-carboxamide] | – | ≥ 70 | –
13 | C=C(C)CC(C)(Cc1ccccc1F)NC(=O)c1cnc2c(c1)c(Br)cn2C (stereo not shown) [Compound 142, 3-bromo-N-(1-(2-fluorophenyl)-2,4-dimethylpent-4-en-2-yl)-1-methyl-1H-pyrrolo[2,3-b]pyridine-5-carboxamide] | – | ≥ 70 | –
14 | Cn1cc(Br)c2cc(C(=O)NC(C)(C)COC(=O)c3ccccc3C(F)(F)F)cnc21 [Compound 180, 2-(3-bromo-1-methyl-1H-pyrrolo[2,3-b]pyridine-5-carboxamido)-2-methylpropyl 2-(trifluoromethyl)benzoate] | – | – | inhibition of growth at 300 ppm (Pyricularia oryzae): ≥ 70%
15 | COc1nc2c(cc1C(=O)NC(C)(C)COc1ccnc(Cl)c1)CCC2 [Compound 243, N-(1-((2-chloropyridin-4-yl)oxy)-2-methylpropan-2-yl)-2-methoxy-6,7-dihydro-5H-cyclopenta[b]pyridine-3-carboxamide] | ≥ 70 | – | –
16 | COc1nc2[nH]ccc2cc1C(=O)NC(C)(C)Cc1ccccc1 [Compound 88, 6-methoxy-N-(2-methyl-1-phenylpropan-2-yl)-1H-pyrrolo[2,3-b] pyridine-5-carboxamide] | – | ≥ 70 | –
17 | Cn1cc(C2CC2)c2cc(C(=O)NC(C)(C)Cc3ccccc3F)cnc21 [Compound 60, 3-cyclopropyl-N-(1-(2-fluorophenyl)-2-methylpropan-2-yl)-1-methyl-1H-pyrrolo[2,3-b]pyridine-5-carboxamide] | ≥ 70 | – | –
18 | Cn1ccc2cc(C(=O)NC(C)(C)Cc3cccc(Cl)c3)cnc21 [Compound 22, N-(1-(3-chlorophenyl)-2-methylpropan-2-yl)-1-methyl-1H-pyrrolo[2,3-b]pyridine-5-carboxamide] | – | ≥ 70 | –
19 | Cn1cc(Cl)c2cc(C(=O)NC3Cc4ccccc4C3)cnc21 [Compound 137, 3-chloro-N-(2,3-dihydro-1H-inden-2-yl)-1-methyl-1H-pyrrolo[2,3-b]pyridine-5-carboxamide] | – | ≥ 70 | –
20 | C=C(C)CC(C)(COc1ccccc1F)NC(=O)c1cnc2c(c1)c(Cl)cn2C (stereo not shown) [Compound 179] | ≥ 70 | – | –
21 | CC(c1ccccc1)C(C)(C)NC(=O)c1cnc2c(c1)c(Cl)cn2C (stereo not shown) [Compound 87, 3-chloro-1-methyl-N-(2-methyl-3-phenylbutan-2-yl)-1H-pyrrolo[2,3-b]pyridine-5-carboxamide] | – | ≥ 70 | –
22 | CON(C(=O)c1cnc2c(c1)CCC2)C(C)Cc1ccccc1F (stereo not shown) [Compound 253, N-(1-(2-fluorophenyl)propan-2-yl)-N-methoxy-6,7-dihydro-5H-cyclopenta[b]pyridine-3-carboxamide] | ≥ 70 | – | –
23 | Cn1cc(Cl)c2cc(C(=O)NC3(c4cc(Cl)cc(Cl)c4)CC3)cnc21 [Compound 140, 3-chloro-N-(1-(3,5-dichlorophenyl)cyclopropyl)-1-methyl-1H-pyrrolo[2,3-b]pyridine-5-carboxamide] | – | ≥ 70 | –
24 | Cc1cc(F)ccc1C(O)C(C)(C)NC(=O)c1cnc2ccsc2c1 (stereo not shown) [Compound 173, N-(1-(4-fluoro-2-methylphenyl)-1-hydroxy-2-methylpropan-2-yl)thieno[3,2-b] pyridine-6-carboxamide] | ≥ 70 | – | –
25 | C=CCC(C)(Cc1ccccc1F)NC(=O)c1cnc2ccsc2c1 (stereo not shown) [Compound 134, N-(1-(2-fluorophenyl)-2-methylpent-4-en-2-yl)thieno[3,2-b] pyridine-6-carboxamide] | – | ≥ 70 | –
26 | Cn1ccc2cc(C(=O)NC(C)(C)Cc3ccccc3Cl)cnc21 [Compound 17, N-(1-(2-chlorophenyl)-2-methylpropan-2-yl)-1-methyl-1H-pyrrolo[2,3-b]pyridine-5-carboxamide] | ≥ 70 | – | –
27 | Cc1nc2[nH]ccc2cc1C(=O)NC(C)(C)Cc1ccc(F)cc1 [Compound 94, N-(1-(4-fluorophenyl)-2-methylpropan-2-yl)-6-methyl-1H-pyrrolo[2,3-b]pyridine-5-carboxamide] | – | ≥ 70 | –
28 | CCC(O)(CC)C(NC(=O)c1cnc2c(c1)c(Cl)cn2C)c1ccccc1 (stereo not shown) [Compound 138, 3-chloro-N-(2-ethyl-2-hydroxy-1-phenylbutyl)-1-methyl-1H-pyrrolo[2,3-b] pyridine-5-carboxamide] | – | ≥ 70 | –
